“Also recorded” adds a separate entry of the source. Read-outs that look alike come from different tables or passages of the source. Positions of bridges follow the written chain, without caps; N, C: chain ends. Residues, ends and D or L forms follow the SMILES beside them. *: point of attachment. X1 = [N-]=[N+]=NC[C@H](NC(=O)CCC(=O)NCCCOCCOCCOCCCN*)C(=O)O
Key:
[1] = biological target: T1, MRP-14 (Homo sapiens, UniProt P06702); test: SPR binding of peptides to immobilized His-tagged MRP-14; details: for SPR binding behaviour (in words): sensorgrams, immobilized MRP-14
T1 construct: purchased Novus Biologicals
T1 sequence (P06702 1-114): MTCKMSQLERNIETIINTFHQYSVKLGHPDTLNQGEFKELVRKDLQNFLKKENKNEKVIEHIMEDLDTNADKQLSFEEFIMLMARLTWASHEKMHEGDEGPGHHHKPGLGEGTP
Protocol: Shortlisted MRP-14 targeting peptides (MTPs) were synthesized with a GGGS spacer and C-terminal amidation (Genscript) and their binding affinities characterized by SPR using Biacore T100 (GE Healthcare). PBST (0.05% Tween 20), pH 7.4 containing […] ethylenediaminetetraacetic acid (EDTA) was used as the running buffer. NTA sensor chips (GE Healthcare) were charged with 0.5 mM NiCl2 solution for 2 minutes at a flowrate of 10 μL/min, then 10 μg/mL His-tagged MRP-14 was bound for 2 minutes at 10 μL/min. For testing affinity to MRP-8/14, untagged MRP-8 (Novus Biologicals) was premixed in a 1:1 ratio with His-tagged MRP-14 for 3 hours in the presence of 0.1 mM CaCl2. Peptides at concentrations ranging from 6.25 μM to 100 μM diluted in running buffer were then injected at 30 μL/min for 1 minute association followed by 1 minute dissociation. Affinity was calculated by fitting a saturation binding curve to the equilibrium response vs. peptide concentration graph.
Their binding affinity to MRP-14 was then quantified using surface plasmon resonance (SPR) with an NTA sensor chip. After charging with Ni^2+, His-tagged MRP-14 was immobilized on the chip.

[2] = biological target: MRP-8/14 (Homo sapiens, UniProt P06702); test: biochemical
Protocol: Shortlisted MRP-14 targeting peptides (MTPs) were synthesized with a GGGS spacer and C-terminal amidation (Genscript) and their binding affinities characterized by SPR using Biacore T100 (GE Healthcare). PBST (0.05% Tween 20), pH 7.4 containing 50 ethylenediaminetetraacetic acid (EDTA) was used as the running buffer. NTA sensor chips (GE Healthcare) were charged with 0.5 mM NiCl2 solution for 2 minutes at a flowrate of 10 μL/min, then 10 μg/mL His-tagged MRP-14 was bound for 2 minutes at 10 μL/min. […] Peptides at concentrations ranging from 6.25 μM to 100 μM diluted in running buffer were then injected at 30 μL/min for 1 minute association followed by 1 minute dissociation. Affinity was calculated by fitting a saturation binding curve to the equilibrium response vs. peptide concentration graph.

[3] = tested on: platelet thrombi in anticoagulated blood on collagen-coated capillaries; test: Ex vivo shear-induced thrombus formation in perfusion (flow) chamber; details: for effect on shear-induced thrombus formation: particles 50 μg/mL, arterial shear rate 600 s^−1, versus PBS only control
Protocol: A perfusion chamber (Portola Pharmaceuticals) was used to evaluate the effect of particles on thrombus formation time. Factor Xa inhibitor anticoagulated blood was labeled with […] Rhodamine 6G (Sigma-Aldrich) for 10 minutes. Particles were added at a final concentration of 50 μg/mL and then the blood perfused through human type III collagen-coated rectangular capillaries at an arterial shear rate of 600 s^−. Thrombus formation under flow was then visualized in real time and average fluorescence of platelet aggregation over time quantified.
Particles were added before perfusion at a concentration of 50 μg/mL, and visualization of thrombus formation was achieved through fluorescence signal from cells labeled with Rhodamine 6G (FIG. 5A). After imaging, average pixel intensity of platelet aggregates over time was quantified (FIG. 5B). […] This is a concern when using nanoparticles to target coagulation factors such as platelets and fibrin due to potential incorporation into the coagulation cascade and further aggregation, as illustrated by the use of such particles for mediating hemostasis.

[4] = biological target: T1, MRP-14; test: Phage ELISA on MRP-14-coated plates; type: binding; details: BSA as background
Protocol: Phage specificity for MRP-14 was verified by performing an ELISA. Polysorp 96-well plates (Nunc) were coated with 50 μL of 50 μg/mL MRP-14 in 0.1 M NaHCO3, pH 8.6 in a humidified chamber overnight at 4° C. The coated wells and additional wells for phage dilutions were blocked with 5 mg/mL BSA in 0.1 M NaHCO3, pH 8.6 for 1 hour at 4° C. After washing 6 times with TBST (0.5% Tween 20), 8 serial fourfold dilutions from 10^12 phages/mL down to 6×10^7 phages/mL were performed in blocked wells then 100 μL of the phages added to MRP-14-coated wells and incubated for 1 hour at room temperature. […] Finally, HRP activity was detected using 100 μL 2,2′-azino-bis(3-ethylbenzothiazoline-6-sulfonic acid) diammonium salt (ABTS) colorimetric substrate solution (Life Technologies) at room temperature for 30 minutes. Absorbance was measured at 410 nm using a Tecan Infinite 200 plate reader
To narrow down the peptide library to the ones with highest affinity, an enzyme-linked immunosorbent assay (ELISA) was performed with the isolated phages. […] Bound phage was detected using horseradish peroxidase (HRP)-labeled anti-M13 antibodies followed by addition of 2,2′-azino-bis(3-ethylbenzothiazoline-6-sulfonic acid) diammonium salt (ABTS) substrate (FIG. 1). […]

[5] = sCy5-labeled particles i.v.; brain, lungs, heart, kidneys, spleen, liver
Protocol: 8-9 week old male C57BL/6 mice were anesthetized by intraperitoneal injection of 62.5 mg/kg sodium pentobarbital. After anesthesia, peptide-targeted and untargeted TMV particles (200 μg/100 μL) were injected intravenously followed by dissection of the mice to expose the right common carotid artery. […] Additionally, to study the biodistribution of the particles, the brain, heart, lungs, kidneys, spleen, and liver were also excised and imaged with Maestro imager.
(§1) The red fluorescence from sCy5 was imaged using Maestro imager, with 800 ms exposure time for the arteries and 400 ms exposure time for the organs. The signal was filtered with 576 to 621 nm excitation and 635-nm longpass emission filters.
Biodistribution was investigated concurrently with the photochemical injury model. The brain, lungs, heart, kidneys, spleen, and liver were collected and particle clearance examined through Maestro imaging (FIG. 6A).

[6] = tested on: thrombi in carotid artery; test: Photochemical injury mouse model of thrombosis, Maestro fluorescence imaging of carotid arteries; type: in vivo, C57BL/6 mice; details: sCy5-labeled particles 200 μg i.v. before injury; n=3; contralateral artery as control
Protocol: 8-9 week old male C57BL/6 mice were anesthetized by intraperitoneal injection of 62.5 mg/kg sodium pentobarbital. After anesthesia, peptide-targeted and untargeted TMV particles (200 μg/100 μL) were injected intravenously followed by dissection of the mice to expose the right common carotid artery. Rose Bengal dye (10 mg/mL in PBS) was then administered via tail vein injection and a 540 nm green laser light (1.5 mW, Melles Griot) placed 5 cm from the artery was used to stimulate photochemical injury and induce thrombus formation. A Doppler flow probe (Transonic Systems) was placed under the artery and used to monitor blood flow. The mice were sacrificed after vessel occlusion. The artery and the contralateral control were excised and fixed in formalin, then imaged by Maestro fluorescence imaging to determine targeting of the particles (see below).
as §1
Progressing to the mouse model, the particles were first injected intravenously, then thrombosis was induced through photochemical injury of the carotid artery, specifically through reactive oxygen species formation from the reaction of green laser light with injected Rose Bengal dye. A flow probe was used to monitor the development of thrombosis, and the arteries along with their contralateral control were excised following occlusion of the vessel.

[7] = kinetic fitting, 390.625 nM to 12.5 μM of MTP6

MRP-8/14, sequence (P05109 whole entry partner, one chain of several, the tested form may be a part): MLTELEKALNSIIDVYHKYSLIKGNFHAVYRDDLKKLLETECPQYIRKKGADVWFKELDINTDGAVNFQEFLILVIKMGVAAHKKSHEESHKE

CC(C)[C@@H]1NC(=O)[C@H](CO)NC(=O)[C@H](CC(N)=O)NC(=O)[C@@H](NC(=O)[C@H](C)N)CSSC[C@@H](C(=O)NCC(=O)NCC(=O)NCC(=O)N[C@@H](CO)C(=O)NCCCOCCOCCOCCCNC(=O)CCC(=O)N[C@@H](CN=[N+]=[N-])C(=O)O)NC(=O)[C@H](Cc2c[nH]cn2)NC(=O)[C@H](Cc2c[nH]cn2)NC(=O)[C@H](CCC(N)=O)NC(=O)[C@H](Cc2c[nH]cn2)NC1=O [MTP6-N3] (H-ACNSVHQHHCGGGS-X1; disulfide 2-10; N-terminus assumed)
Kd ([1]; saturation binding curve fit of equilibrium response, peptides 6.25 μM to 100 μM, NTA chip, read-out: Kd (dissociation constant from SPR measurements with MRP-14)): 55.7 µM

CC(C)[C@@H]1NC(=O)[C@H](CO)NC(=O)[C@H](CC(N)=O)NC(=O)[C@@H](NC(=O)[C@H](C)N)CSSC[C@@H](C(=O)NCC(=O)NCC(=O)NCC(=O)N[C@@H](CO)C(N)=O)NC(=O)[C@H](Cc2c[nH]cn2)NC(=O)[C@H](Cc2c[nH]cn2)NC(=O)[C@H](CCC(N)=O)NC(=O)[C@H](Cc2c[nH]cn2)NC1=O [MTP6] (H-ACNSVHQHHCGGGS-NH2; disulfide 2-10 (inferred); N-terminus assumed)
Kd [1]: 39.6 µM | Kd [2]: 57.6 µM | effect on shear-induced thrombus formation [3]: does not appear to block involvement of MRP-14 in thrombosis

CC(C)C[C@@H]1NC(=O)CNC(=O)[C@H]([C@@H](C)O)NC(=O)[C@@H]2CCCN2C(=O)[C@@H](NC(=O)[C@H](C)N)CSSC[C@@H](C(=O)NCC(=O)NCC(=O)NCC(=O)N[C@@H](CO)C(N)=O)NC(=O)[C@H](C)NC(=O)[C@H](Cc2c[nH]cn2)NC(=O)[C@H](Cc2c[nH]cn2)NC1=O [MTP9] (H-ACPTGLHHACGGGS-NH2; disulfide 2-10 (inferred); N-terminus assumed)
SPR binding behaviour (in words) [1]: quick initial interaction followed by a slower binding phase

C[C@H](N)C(=O)N[C@H]1CSSC[C@@H](C(=O)NCC(=O)NCC(=O)NCC(=O)N[C@@H](CO)C(=O)O)NC(=O)[C@H](CO)NC(=O)[C@H](Cc2c[nH]cn2)NC(=O)[C@H](CC(N)=O)NC(=O)[C@H](CC(N)=O)NC(=O)[C@H](CCCCN)NC(=O)[C@@H]2CCCN2C(=O)[C@H](CCCNC(=N)N)NC1=O [MTP10]
SPR binding behaviour (in words) [1]: did not really associate with MRP-14 | phage binding to MRP-14 (in words) [4]: one of the best peptides

MDPHAHNGGGS [Scrambled, reference compound]
Kd (dissociation constant from SPR measurements with MRP-14) ([1]; saturation binding curve fit of equilibrium response, peptides 6.25 μM to 100 μM, NTA chip): no | SPR binding behaviour (in words) [1]: low non-specific binding

B1: TMV-MTP6: MTP6-N3 attached to the exterior of tobacco mosaic virus by CuAAC, approximately 400 MTP6 per particle; sCy5-labeled for imaging (conjugate)
peptide: ACNSVHQHHCGGGS
chain: SYSITTPSQFVFLSSAWADPIELINLCTNALGNQFQTQQARTVVQRQFSEVWKPSPQVTVRFPDSDFKVYRYNAVLDPLVTALLGAFDTRNRIIEVENQANPTTAETLDATRRVDDATVAIRSAINNLIVELIRGTGSYNRSSFESSSGLVWTSGPAT
biodistribution / route of clearance [5]: clearance predominantly through the liver | targeting of thrombi (fluorescence signal in injured artery) [6]: some success with imaging thrombi; also recorded: targeting was observed; also recorded: targeted TMV-MTP6 attachment to the thrombi and no nonspecific accumulation in the contralateral, uninjured artery | Kd ([1]; kinetic curve fitting instead of equilibrium fit, read-out: Kd (dissociation constant from SPR measurements with MRP-14), kinetic fit): 0.754 µM | ka (association rate) [1, 7]: 909.6 M⁻¹ s⁻¹ | kd (dissociation rate) [1, 7]: 0.0006858 s⁻¹ | aggregation of particles in blood ([3]; ex vivo flow model): no aggregation observed | effect on shear-induced thrombus formation [3]: some delay in thrombus onset; also recorded: no stimulation of thrombosis; also recorded: no significant effect on thrombosis
